This is an account of results in US20240366598A1, “GLUCOSE-DEPENDENT INSULINOTROPIC POLYPEPTIDE RECEPTOR ANTAGONISTS AND USES THEREOF” (Pfizer Inc., priority 2023, published 2024).

As usually defined, the IC50 is the concentration that inhibits the measured activity by half.

The experiment has as its target T1, human Glucose-dependent Insulinotropic Polypeptide Receptor (hGIPR) (Homo sapiens, UniProt P48546).
T1 sequence (P48546 22-466): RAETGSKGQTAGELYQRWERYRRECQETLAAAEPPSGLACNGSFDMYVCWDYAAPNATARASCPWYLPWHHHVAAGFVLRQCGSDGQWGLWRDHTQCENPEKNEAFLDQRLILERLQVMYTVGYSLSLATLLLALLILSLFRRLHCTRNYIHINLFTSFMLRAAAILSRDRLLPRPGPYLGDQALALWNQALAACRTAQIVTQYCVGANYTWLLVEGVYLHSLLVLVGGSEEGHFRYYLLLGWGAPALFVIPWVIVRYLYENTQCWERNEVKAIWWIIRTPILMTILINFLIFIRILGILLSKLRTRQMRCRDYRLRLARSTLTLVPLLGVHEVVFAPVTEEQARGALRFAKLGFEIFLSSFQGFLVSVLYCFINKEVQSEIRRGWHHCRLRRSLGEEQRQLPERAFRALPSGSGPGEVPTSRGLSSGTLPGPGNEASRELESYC
Nature of the experiment: Functional in vitro GIPR antagonist potency assay (cAMP HTRF, CHO-K1 cells stably expressing hGIPR, hGIP stimulation at about EC80). Conditions: geometric mean, hGIP at estimated EC80, examples marked ^2: overall geometric mean of multiple forms (including salts) tested. In kind it is cell-based. Put shortly:
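HTRF quantification of cAMP after stimulation with hGIP at an estimated EC80 for 30 min at 37 °C. Before stimulation, hGIPR-expressing CHO-K1 cells were exposed 2 h to test compound in IBMX-containing buffer, with 0.5% DMSO final. Percent effect is referenced to agonist alone (0%) and to 80 μM of a reference antagonist (100%), and runs required the agonist concentration to fall within the on-the-day EC50–EC90.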
As for `CC(C)c1ccc(NC(=O)N2CCC[C@@H]2C(=O)Nc2ccc(-c3ccc(O)c(Cl)c3)cc2)cc1` [Example 96, (2R)-N^2-(3′-chloro-4′-hydroxy[1,1′-biphenyl]-4-yl)-N^1-[4-(propan-2-yl)phenyl]pyrrolidine-1,2-dicarboxamide], the IC50 is 180 nM.
As to `Cc1cc(O)ccc1-c1ccc(NC(=O)[C@H]2CCCN2C(=O)Nc2ccc(C(C)C)cc2)cc1` [Example 97, (2R)-N^2-(4′-hydroxy-2′-methyl[1,1′-biphenyl]-4-yl)-N^1-[4-(propan-2-yl)phenyl]pyrrolidine-1,2-dicarboxamide], the IC50 was 230 nM.
`CC(C)c1ccc(NC(=O)N2CCC[C@@H]2C(=O)Nc2ccc(-c3cc(Cl)c(C(=O)O)cc3F)cc2)cc1` [Example 98, 5-chloro-2-fluoro-4′-[(1-{[4-(propan-2-yl)phenyl]carbamoyl}-D-prolyl)amino][1,1′-biphenyl]-4-carboxylic acid]: the IC50 was 30 nM.
On to `CC(C)c1ccc(NC(=O)N2CCC[C@@H]2C(=O)Nc2ccc(-c3cc(F)c(O)c(F)c3)cc2)cc1` [Example 99, (2R)-N^2-(3′,5′-difluoro-4′-hydroxy[1,1′-biphenyl]-4-yl)-N^1-[4-(propan-2-yl)phenyl]pyrrolidine-1,2-dicarboxamide], for which the IC50 was 18 nM.
Consider `CC(C)c1ccc(NC(=O)N2CCC[C@@H]2C(=O)Nc2ccc(-c3ccc(O)c(C#N)c3)cc2)cc1` [Example 100, (2R)-N^2-(3′-cyano-4′-hydroxy[1,1′-biphenyl]-4-yl)-N^1-[4-(propan-2-yl)phenyl]pyrrolidine-1,2-dicarboxamide], for which the IC50 was 27 nM.
In the case of `O=C(O)c1ccc(-c2ccc(NC(=O)[C@H]3CCCN3C(=O)Nc3cnc(C(F)(F)F)nc3)cc2)cc1` [Example 101, 4′-[(1-{[2-(trifluoromethyl)pyrimidin-5-yl]carbamoyl}-D-prolyl)amino][1,1′-biphenyl]-4-carboxylic acid], the IC50 is 92 nM.
Consider `Cc1nc(NC(=O)N2CCC[C@@H]2C(=O)Nc2ccc(-c3ccc(C(=O)O)cc3)cc2)ccc1C(C)C` [Example 102, 4′-[(1-{[6-methyl-5-(propan-2-yl)pyridin-2-yl]carbamoyl}-D-prolyl)amino][1,1′-biphenyl]-4-carboxylic acid], for which the IC50 is 690 nM.
Turning to `O=C(O)c1ccc(-c2ccc(NC(=O)[C@H]3CCCN3C(=O)Nc3ccc(Cl)cc3Cl)cc2)cc1` [Example 103, 4′-({1-[(2,4-dichlorophenyl)carbamoyl]-D-prolyl}amino)[1,1′-biphenyl]-4-carboxylic acid], the IC50 was 29 nM.
With `CC(C)c1ccc(NC(=O)N2C[C@H]3C[C@H]3[C@@H]2C(=O)Nc2ccc(-c3ccc(C(=O)O)cc3)cc2)cc1` [Example 104, 4′-{[(1R,2R,5S)-3-{[4-(propan-2-yl)phenyl]carbamoyl}-3-azabicyclo[3.1.0]hexane-2-carbonyl]amino}[1,1′-biphenyl]-4-carboxylic acid], the IC50 was 2.9 nM.
The figure for `CC(C)c1ccc(NC(=O)N2C[C@@H]3C[C@@H]3[C@@H]2C(=O)Nc2ccc(-c3ccc(C(=O)O)cc3)cc2)cc1` [Example 105, 4′-{[(1S,2R,5R)-3-{[4-(propan-2-yl)phenyl]carbamoyl}-3-azabicyclo[3.1.0]hexane-2-carbonyl]amino}[1,1′-biphenyl]-4-carboxylic acid] is 8.8 nM; for `Cc1cc(NC(=O)N2CCC[C@@H]2C(=O)Nc2ccc(-c3ccc(C(=O)O)cc3)cc2)ccc1C(F)(F)F` [Example 106, 4′-[(1-{[3-methyl-4-(trifluoromethyl)phenyl]carbamoyl}-D-prolyl)amino][1,1′-biphenyl]-4-carboxylic acid] it is 3 nM; for `N#Cc1cc(CNC(=O)N2CCC[C@@H]2C(=O)Nc2ccc(-c3ccc(C(=O)O)cc3)cc2)ccc1Cl` [Example 107, 4′-[(1-{[(4-chloro-3-cyanophenyl)methyl]carbamoyl}-D-prolyl)amino][1,1′-biphenyl]-4-carboxylic acid] it is 720 nM.
Consider `O=C(O)c1ccc(-c2ccc(NC(=O)[C@H]3CCCN3C(=O)NCc3cnc(C(F)(F)F)nc3)cc2)cc1` [Example 108, 4′-{[1-({[2-(trifluoromethyl)pyrimidin-5-yl]methyl}carbamoyl)-D-prolyl]amino}[1,1′-biphenyl]-4-carboxylic acid], for which the IC50 is 260 nM.
Regarding `CC(C)c1ccc(CNC(=O)N2CCC[C@@H]2C(=O)Nc2ccc(-c3ccc(C(=O)O)cc3)cc2)cc1` [Example 109, 4′-{[1-{{[4-(propan-2-yl)phenyl]methyl}carbamoyl)-D-prolyl]amino}[1,1′-biphenyl]-4-carboxylic acid], the IC50 was 5.1 nM.
The figure for `O=C(O)c1ccc(-c2ccc(NC(=O)[C@H]3CCCN3C(=O)Nc3ccc(Cl)c(C(F)(F)F)c3)cc2)cc1` [Example 110, 4′-[(1-{[4-chloro-3-(trifluoromethyl)phenyl]carbamoyl}-D-prolyl)amino][1,1′-biphenyl]-4-carboxylic acid] is 3.7 nM.
With `CCC(C)c1ccc(NC(=O)N2CCC[C@@H]2C(=O)Nc2ccc(-c3ccc(C(=O)O)cc3)cc2)cc1` (stereo partly drawn) [Example 111, 4′-[(1-{[4-(butan-2-yl)phenyl]carbamoyl}-D-prolyl)amino][1,1′-biphenyl]-4-carboxylic acid], the IC50 is 11 nM.
Turning to `CC(C)c1ncc(NC(=O)N2CCC[C@@H]2C(=O)Nc2ccc(-c3ccc(C(=O)O)cc3)cc2)cn1` [Example 112, 4′-[(1-{[2-(propan-2-yl)pyrimidin-5-yl]carbamoyl}-D-prolyl)amino][1,1′-biphenyl]-4-carboxylic acid], the IC50 is 840 nM.
Consider `O=C(O)c1ccc(-c2ccc(NC(=O)[C@H]3CCCN3C(=O)NCc3cc(Cl)cc(Cl)c3)cc2)cc1` [Example 113, 4′-[(1-{[(3,5-dichlorophenyl)methyl]carbamoyl}-D-prolyl)amino][1,1′-biphenyl]-4-carboxylic acid], for which the 50% inhibitory concentration (IC50) is 21 nM.
The figure for `O=C(O)c1ccc(-c2ccc(NC(=O)[C@H]3CCCN3C(=O)Nc3ccc(C4CCCCC4)cc3)cc2)cc1` [Example 114, 4′-({1-[(4-cyclohexylphenyl)carbamoyl]-D-prolyl}amino)[1,1′-biphenyl]-4-carboxylic acid] is 40 nM; for `O=C(O)c1ccc(-c2ccc(NC(=O)[C@H]3CCCN3C(=O)Nc3ccc(C4CCCC4)cc3)cc2)cc1` [Example 115, 4′-({1-[(4-cyclopentylphenyl)carbamoyl]-D-prolyl}amino)[1,1′-biphenyl]-4-carboxylic acid] it is 4.8 nM.
Consider `O=C(O)c1ccc(-c2ccc(NC(=O)[C@H]3CCCN3C(=O)NCc3ccc(Cl)c(Cl)c3)cc2)cc1` [Example 116, 4′-[(1-{[(3,4-dichlorophenyl)methyl]carbamoyl}-D-prolyl)amino][1,1′-biphenyl]-4-carboxylic acid], for which the IC50 was 12 nM.
For `CC(C)c1ccc(NC(=O)N2CCC[C@@H]2C(=O)Nc2ccc(-c3ccc(C(=O)O)cc3)cc2)c(F)c1` [Example 117, 4′-[(1-{[2-fluoro-4-(propan-2-yl)phenyl]carbamoyl}-D-prolyl)amino][1,1′-biphenyl]-4-carboxylic acid], the IC50 was 26 nM.
On to `CCc1ccc(NC(=O)N2CCC[C@@H]2C(=O)Nc2ccc(-c3ccc(C(=O)O)cc3)cc2)cc1` [Example 118, 4′-({1-[(4-ethylphenyl)carbamoyl]-D-prolyl}amino)[1,1′-biphenyl]-4-carboxylic acid], for which the 50% inhibitory concentration (IC50) was 15 nM.
Turning to `CC(C)(C)c1ccc(NC(=O)N2CCC[C@@H]2C(=O)Nc2ccc(-c3ccc(C(=O)O)cc3)cc2)cc1` [Example 119, 4′-({1-[(4-tert-butylphenyl)carbamoyl]-D-prolyl}amino)[1,1′-biphenyl]-4-carboxylic acid], the IC50 is 24 nM.
Take `COc1nc(C(=O)O)ccc1-c1ccc(NC(=O)[C@H]2CCCN2C(=O)Nc2ccc(C(C)C)cc2)cc1` [Example 120, 6-methoxy-5-{4-[(1-{[4-(propan-2-yl)phenyl]carbamoyl}-D-prolyl)amino]phenyl}pyridine-2-carboxylic acid]: the concentration for half-maximal inhibition (IC50) is 26 nM.
For the compound `CC(C)c1ccc(NC(=O)N2CCC[C@@H]2C(=O)Nc2cnc(-c3ccc(C(=O)O)cc3)cn2)cc1` [Example 121, 4-{5-[(1-{[4-(propan-2-yl)phenyl]carbamoyl}-D-prolyl)amino]pyrazin-2-yl}benzoic acid], the IC50 is 27 nM.
On to `O=C(O)c1ccc(-c2ccc(NC(=O)[C@H]3CCCN3C(=O)Nc3ccc(C4CC4)cc3)cc2)cn1` [Example 122, 5-[4-({1-[(4-cyclopropylphenyl)carbamoyl]-D-prolyl}amino)phenyl]pyridine-2-carboxylic acid], for which the IC50 is 99 nM.
In the case of `CC(C)c1ccc(NC(=O)N2C[C@H]3C[C@H]3[C@@H]2C(=O)Nc2ccc(-c3ccc(C(=O)O)cc3)cn2)cc1` [Example 123, 4-(6-{[(1R,2R,5S)-3-{[4-(propan-2-yl)phenyl]carbamoyl}-3-azabicyclo[3.1.0]hexane-2-carbonyl]amino}pyridin-3-yl)benzoic acid], the IC50 is 11 nM.
The figure for `O=C(O)c1ccc(-c2ccc(NC(=O)[C@H]3CCCN3C(=O)NCc3ccc(F)c(Cl)c3)cc2)cc1` [Example 124, 4′-[(1-{[(3-chloro-4-fluorophenyl)methyl]carbamoyl}-D-prolyl)amino][1,1′-biphenyl]-4-carboxylic acid] is 74 nM.
